Reference: US20200377863A1, “MODEL SYSTEM OF LIVER FIBROSIS AND METHOD OF MAKING AND USING THE SAME” (Wake Forest University Health Sciences, priority 2017, published 2020)

Assays:
[1] = test system: implanted liver organoids; experiment: Effect of CCl4 treatment on liver organoids implanted on mouse liver; type: in vivo, nude mice; conditions: 4 μl/g CCl4 in olive oil (1:1), bi-weekly subcutaneous injections
Method: FIG. 3. The effect of CCl4 treatment on implanted liver organoids. Liver organoids were inserted on top of mouse livers via a small hole carved with a 8 mm biopsy punch and immobilized with fibrin glue. Some of the mice were treated with 4 μl/g CCl4, via bi-weekly subcutaneous injections. Liver organoids were harvested after 1 and 3 weeks and immune-stained for human hepatocytes (Hep-1) and proliferating cells (PCNA). Implant margins are drawn.
Yet, the in vitro culture conditions lack multiple factors present in vivo including components of the blood and immune cells, to mention a few. Accordingly, we implanted organoids on top the liver of nude mice by creating a small hole with a biopsy punch and immobilized them with fibrin glue. […] In parallel, we treated some on the implanted mice with […] of CCl4 in olive oil (1:1), via bi-weekly subcutaneous injections. […] Neovascularization was also observed within the organoids, probably due to CCl4-induced injury of the host liver.

[2] = test system: cells that do not carry activating EZH2 mutations; conditions: high doses; cited from earlier work
[3] = test system: cancer cell lines that have EZH2 activating mutations; conditions: cited from earlier work
EZH2 [4] = target: T1, EZH2 (Homo sapiens, UniProt Q15910); experiment: Western blot and densitometry of EZH2 activity marker H3K27me3 in fibroblasts treated with GSK-126; type: cell-based
T1 construct: endogenous in cells; host or cells: myofibroblasts transitioned from mesenchymal stem cells (called tumor-associated fibroblasts, TAF)
T1 sequence (Q15910 whole entry, species assumed): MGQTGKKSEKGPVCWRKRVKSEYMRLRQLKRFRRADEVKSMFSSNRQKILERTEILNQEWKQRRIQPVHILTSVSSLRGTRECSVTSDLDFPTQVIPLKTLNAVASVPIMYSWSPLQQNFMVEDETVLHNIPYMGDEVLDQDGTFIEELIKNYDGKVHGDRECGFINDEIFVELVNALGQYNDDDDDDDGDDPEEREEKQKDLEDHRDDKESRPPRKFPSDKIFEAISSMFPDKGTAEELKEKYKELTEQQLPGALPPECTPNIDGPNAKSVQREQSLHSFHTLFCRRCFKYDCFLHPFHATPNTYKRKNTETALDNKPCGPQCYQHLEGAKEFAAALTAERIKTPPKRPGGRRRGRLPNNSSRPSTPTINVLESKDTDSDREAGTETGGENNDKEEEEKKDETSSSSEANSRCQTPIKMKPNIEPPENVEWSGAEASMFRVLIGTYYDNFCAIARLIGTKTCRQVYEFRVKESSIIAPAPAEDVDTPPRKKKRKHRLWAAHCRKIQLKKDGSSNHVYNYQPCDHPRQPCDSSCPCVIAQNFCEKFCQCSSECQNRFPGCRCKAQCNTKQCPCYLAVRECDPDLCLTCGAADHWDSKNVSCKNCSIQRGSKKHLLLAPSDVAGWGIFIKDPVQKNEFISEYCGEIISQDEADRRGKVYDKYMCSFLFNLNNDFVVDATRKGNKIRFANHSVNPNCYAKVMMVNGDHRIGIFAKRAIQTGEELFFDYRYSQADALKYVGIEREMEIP
T1 sequence (Q15022 whole entry partner, species assumed): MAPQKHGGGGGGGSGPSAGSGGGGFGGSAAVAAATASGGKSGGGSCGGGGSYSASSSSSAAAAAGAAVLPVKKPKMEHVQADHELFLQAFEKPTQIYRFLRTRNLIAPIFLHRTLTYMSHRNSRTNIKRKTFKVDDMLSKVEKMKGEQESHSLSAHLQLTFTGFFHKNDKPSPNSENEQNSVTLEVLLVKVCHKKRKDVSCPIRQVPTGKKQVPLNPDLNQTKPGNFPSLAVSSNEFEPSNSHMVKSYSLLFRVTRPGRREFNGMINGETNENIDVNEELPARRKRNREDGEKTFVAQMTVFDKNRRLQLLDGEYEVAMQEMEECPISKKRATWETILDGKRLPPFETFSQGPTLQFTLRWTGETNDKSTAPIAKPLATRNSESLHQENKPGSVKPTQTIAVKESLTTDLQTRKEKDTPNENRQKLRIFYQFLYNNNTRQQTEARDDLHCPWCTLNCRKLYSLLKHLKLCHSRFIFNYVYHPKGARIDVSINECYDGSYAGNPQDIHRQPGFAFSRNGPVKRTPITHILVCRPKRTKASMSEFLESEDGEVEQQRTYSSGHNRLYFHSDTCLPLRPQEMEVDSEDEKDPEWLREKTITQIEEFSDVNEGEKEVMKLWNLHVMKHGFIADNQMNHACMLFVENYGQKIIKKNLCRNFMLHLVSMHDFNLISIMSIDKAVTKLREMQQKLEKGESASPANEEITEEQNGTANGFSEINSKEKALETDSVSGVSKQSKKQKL
T1 sequence (O75530 whole entry partner, species assumed): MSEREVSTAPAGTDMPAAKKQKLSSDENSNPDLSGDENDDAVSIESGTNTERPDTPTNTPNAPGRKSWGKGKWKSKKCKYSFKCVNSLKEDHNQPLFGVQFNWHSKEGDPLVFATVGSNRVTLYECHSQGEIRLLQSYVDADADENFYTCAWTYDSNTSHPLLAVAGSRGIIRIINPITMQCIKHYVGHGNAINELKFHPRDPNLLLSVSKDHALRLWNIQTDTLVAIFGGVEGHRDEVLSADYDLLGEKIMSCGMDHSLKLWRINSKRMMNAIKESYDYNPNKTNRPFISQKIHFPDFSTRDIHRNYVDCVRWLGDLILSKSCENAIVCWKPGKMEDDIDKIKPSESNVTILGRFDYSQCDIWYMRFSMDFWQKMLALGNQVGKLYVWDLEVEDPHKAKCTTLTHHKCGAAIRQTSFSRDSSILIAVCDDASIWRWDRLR
Method: (§1) FIG. 4A-FIG. 4F. Analysis of LX-2 cells. FIG. 4A: Western blot comparison of αSMA and PRC2 components/markers in Myofibroblasts and LX-2. FIG. 4B: Densitometry analysis of Myofibroblast vs. LX-2 western blot. FIG. 4C: Western blot analysis of αSMA and PRC2 components/markers in LX-2 cells treated with TGFβ for 24 or 48 hours. FIG. 4D: Densitometry analysis of TGFβ treated LX-2. FIG. 4E: Western blot analysis of EZH2 marker (H3K27me3) for EZH2 activity in myofibroblasts transitioned from Mesenchymal Stem Cells treated with GSK-126, a chemical inhibitor of EZH2. DMSO is a vehicle control.

EZH2 [5] = conditions: lymphoma and non-small cell lung cancer cell lines in vitro; cited from earlier work
LX-2 = experiment: Western blot of EZH2 activity and PRC2 components in LX-2 cells incubated with TGFβ; type: cell-based; conditions: LX-2 cells treated with TGFβ for 24 or 48 hours; FIG. 4C, 4D
Method: as §1
In the fibrotic liver tissue, about 90% of myofibroblasts are derived from HSC (Liedtke, C., et al., Experimental liver fibrosis research: update on animal models, legal issues and translational aspects. Fibrogenesis Tissue Repair, 2013. 6(1): p. 19), and EZH2 may be an epigenetic regulator of HSC activation and transition into myofibroblast. It was shown that, like myofibroblasts (MF-10), the HSC cell line (LX-2) expresses EZH2 and the PRC components in vitro (FIG. 4A, FIG. 4B).

ClC(Cl)(Cl)Cl [CCl4, carbon tetrachloride]
Organoid histology after 1 week of CCl4 treatment ([1]; harvested after 1 week): lack of nucleated human hepatocytes within the organoids and early signs of fibrosis
Organoid histology after 3 weeks of CCl4 treatment ([1]; harvested after 3 weeks): higher number of proliferating stromal and endothelial cells

CC[C@H](C)n1cc(C)c2c(C(=O)NCc3c(C)cc(C)[nH]c3=O)cc(-c3ccc(N4CCNCC4)nc3)cc21 [GSK-126]
Lethality [2]: non-lethal, even at high doses
Cell death [3]: resulted in cell death
Densitometry of EZH2 marker (H3K27me3): activity of EZH2 (EZH2 [4]; myofibroblasts transitioned from Mesenchymal Stem Cells, treated with GSK-126, FIG. 4F): effective decrease in activity of EZH2
H2K27me3 after incubation with GSK-126 (EZH2 [4]; tumor-associated fibroblasts (TAF), Western blot, FIG. 4E, 4F): complete loss of H2K27me3
Prevention of H3K27me3 (EZH2 [5]): effective at preventing H3K27me3

TGFβ
EZH2 activity and PRC machinery (Suz12, H3K27me3) (LX-2): induced EZH2 activity and PRC machinery
